Test results: article PMC9006931, “Altered Response Pattern following AZD5582 Treatment of SIV-Infected, ART-Suppressed Rhesus Macaque Infants” (Journal of Virology, 2022)

Experiments:
[1] = Plasma pharmacokinetics of AZD5582 in infant RMs (HPLC-MS/MS, NCA); format: in vivo, rhesus macaque
Description: As a potential explanation for the dampened virologic response to AZD5582 observed in infant RMs, we investigated AZD5582 pharmacokinetics (PK) following the third dose using a sparse sampling design. Blood samples were collected immediately following infusion in 4 RMs and from 2 RMs per time point at 1 h, 2 h, 4 h, 8 h, and 24 h postinfusion. […] Noncompartmental analysis (NCA) was conducted to determine pharmacokinetic parameters in infants and compared with available PK data from adult historical controls of SIV-infected, ART-suppressed rhesus macaques (n = 7) given matched doses of AZD5582 (Fig. 4B) ([17]). […] Although corresponding data were not collected from adult macaques, we note that in infants the AUC0-24h was calculated as 239 ng × hr/mL.
Plasma samples were collected from RMs over 24 h following the start of a single 30 min intravenous infusion of AZD5582 using a previously published ([17]). A high-performance liquid chromatography-mass spectrometry (HPLC-MS/MS) method with a dynamic range of 0.2 to 1000 ng/mL. Noncompartmental analysis (NCA) was performed using Phoenix64 WinNonlin v8.1 software using the sparse sampling function to derive mean PK parameters. The linear up-log down trapezoidal rule was used to calculate AUC. The terminal elimination rate constant (kel) was estimated by fitting a linear regression line on a semilog plot to the individual concentration data constrained to observations from 4 to 24 h post start of infusion and used to calculate terminal elimination half-life. One observation below the assay’s limit of quantification was imputed at ½ the lower limit of quantification ([35]).

[2] = system: ncNF-κB pathway genes BIRC3 and NFkB2; assay: Ex vivo AZD5582 stimulation of sorted naive and memory CD4+ T cells, target gene RT-qPCR; format: cell-based, rhesus macaque; conditions: 1000 nM (n = 6) or 100 nM (n = 4) AZD5582, 24 h
Source text: We have previously shown that naive CD4^+ T cells are a major contributor to the viral reservoir in both SIV- and SHIV-infected infant macaques ([10], [11]). We were therefore interested to determine whether the dampened ART viremia that we observed in vivo was due to differential induction of ncNF-kB activation in naive and memory CD4^+ T cells following AZD5582 treatment. It is well documented that activation of naive CD4^+ T cells relies predominantly on cNF-κB and not the ncNF-κB pathway ([22]). […]
For cell sorting, peripheral CD4^+ T cells were first enriched by negative selection with the use of magnetic beads and column purification (nonhuman primate CD4^+ T cell isolation kit; Miltenyi). Enriched CD4^+ T cells were then stained with viability dye (Live/Dead Aqua) and previously determined volumes of the following fluorescently conjugated MAbs: CD3-AF700 (clone SP34-2), CD8-APC-Cy7 (clone SK1), CD95-PE-Cy5 (clone DX2), CD62L-PE (clone SK11), and CCR7-PE-Cy7 (clone 3D12) from BD Biosciences; CD4-BV650 from BioLegend. […]
Naïve and memory CD4^+ T cells were treated with 100 or 1000 nM AZD5582 for 24 h and then stored as a dry pellet until RNA extraction. […] Gene expression was normalized to TATA box binding protein (TBP) and the comparative threshold cycle (Ct) method (ΔΔCt) was used for relative quantification of gene expression. […]

[3] = system: CD4+ T cells from SIV-infected, ART-suppressed adult RMs; assay: Ex vivo viral RNA induction assay, adult CD4+ T cells; format: cell-based, rhesus macaque; conditions: 100 nM, 9 days, in presence of DTG+FTC
Source text: Following confirmation of ncNF-κB pathway activation in infant naive and memory CD4^+ T cells ex vivo, we next sought to evaluate SIV reactivation following ex vivo AZD5582 stimulation in CD4^+ T cells isolated from SIV-infected, ART-suppressed infant RMs compared to CD4^+ T cells from SIV-infected, ART-suppressed adult RMs. To do so, we isolated CD4^+ T cells through negative selection from the peripheral blood of five SIV-infected, ART-suppressed adult RMs and five SIV-infected, ART-suppressed infant RMs. Cells were stimulated with either 100 nM AZD5582 or rhesus specific anti-CD2/CD3/CD28 beads (as a positive control) in the presence of ART (DTG+FTC) for 9 days. The supernatant was collected to quantify SIVgag RNA through qPCR as a measure of viral reactivation.
Viable cryopreserved PBMCs from SIV-infected, ART-suppressed infant and adult RMs collected 34 to 97 weeks post ART initiation were thawed, and CD4^+ T cells were enriched by negative selection using the NHP CD4^+ T cell isolation kit (Miltenyi Biotec). […] The viral RNA content of frozen cell-free culture supernatants collected on day 9 was determined using the SIVgag qPCR described above.

[4] = rhesus monkey, in vivo, iv, 0.1 mg/kg

CN[C@@H](C)C(=O)N[C@H](C(=O)N1CCC[C@H]1C(=O)N[C@H]1c2ccccc2C[C@H]1OCC#CC#CCO[C@@H]1Cc2ccccc2[C@@H]1NC(=O)[C@@H]1CCCN1C(=O)[C@@H](NC(=O)[C@H](C)NC)C1CCCCC1)C1CCCCC1 [AZD5582]
Fold lower AUC0-2h in infants compared with adults ([1]; infant vs adult RMs): 2.3 fold | AUC0-2h [1, 4]: 223 ng·h/mL | AUC0-24h [1, 4]: 239 ng·h/mL | Cmax [1, 4]: 294 ng/mL | t1/2 (terminal elimination halflife) [1, 4]: 9.9 h | Fold induction of BIRC3 gene expression, naive versus memory CD4+ T cells [2]: No significant difference | Fold induction of NFkB2 gene expression, naive versus memory CD4+ T cells [2]: No significant difference | Animals whose CD4+ T cell cultures showed increased SIV RNA expression in supernatant [3]: 3/5
